Where no end group is shown, it is not given here.
What was measured:
[1] = test system: aPL from a pool of 13 Human patients; experiment: Surface plasmon resonance, aPL flown over biotin-peptide-coated SA chip (BIAcore X100); type: binding
Experimental: The kinetics and affinity of protein-protein and protein-lipid interactions were determined using a BIAcore X100 instrument. 1 mg/ml of biotin-tagged peptide (ligand) was immobilized using a sensor chip SA (GE Healthcare) surface, whereas aPL from a pool of 13 Human patients were flown as analyte. The first flow cell of the sensor chip was used as a control surface (no protein), whereas the second flow cell was employed as the active surface. A range of dilution of aPL analytes prepared in the same buffer was injected on both flow cell surfaces at a flow rate of 30 μl/min. Association and dissociation times for each protein injection were set at 90 and 120 s, respectively. In all cases, sensorgrams were obtained from three different dilutions of aPL.
The de Groot's research group has pointed at the importance of hydrophobic character of the plate during coating of R39-R43 epitope. In order to abrogate of the plate-dependent aPL binding, the Ia-1 and Ib-1 peptides as well as the R39-R43 with a biotin at their N-terminal were synthetized and coated a streptavidin plate. In this configuration, the different peptides are flag oriented in the space preventing any interaction with the plate. It was thus observed that the flag-type orientation of R39-R43-biot leads to 8.52×more interaction with aPL while they show 9.63×more binding for Ib-1-biot presenting the same position. […] The surface plasmon resonance (SPR) technique is used to determine the relative avidity of aPL for R39-R43-biot and Ib-1-biot. The interaction between aPL and immobilized R39-R43-biot or Ib-1-biot is monitored by flowing various concentrations of aPL over a R39-R43-biot- or Ib-1-biot-coated chip surface (FIG. 1C). Through SPR experiments, it appears that aPL avidity for Ib-1-biot presents a resonance unit (RU) of 51.49 at 1/1,000 of dilution and a RU of 27.61 at 1/10,000 of dilution while, at the same dilution, it present a RU of 27.36 and a RU of 17.99 with R39-R43-biot, respectively (FIG. 1C). However, at higher concentrations, the peptides seems to show no differences in the interactions with aPL. […] Considering that IgG valency, it was decided to generate a dimeric Ib-1-biot peptide (Ib-1-biot-2x). This new polypeptide carries thus two optimized epitopes which have the opportunity to interact with two Fab fragment present on aPL. […] At higher concentration, i.e dilution of 1/100, the avidity for dimeric peptide is 28×more than for the monomeric (FIG. 1D).
It was performed a peptide substitution scan of Ib-1-biot VSRGGMRKKKKPLTG (SEQ ID NO: 6) carrying the optimized epitope Ib-1-biot and based on an exchange of the underlined amino acid positions with the 20 main amino acids. The resulting peptide microarrays contained 140 different peptides. It was observed that the peptide substitution of the position n° 1, 2, 12 and 15 have significant influences on the ability to interact with aPL from patients 1, 2, 3, 4 and, in particular, form the plasma pool. Indeed, the substitution of the position 1, 12 or 15 by an Arginine (R) or a Lysine (K) increases the avidity of the peptide for all aPL from patients. […] In this context, the enhancement relative to Ib-1.0-biot-2x of identified peptides was evaluated (FIG. 2A). […] However, streptavidin being known to produce unspecific binding, it was used the ratio between aPL and a pool of human plasma as control (B/B0) (FIG. 2B, upper panel). This representation therefore allows to distinguish the real levels of interactions. It was then performed a dilution assay from dilution of 1/100 to 1/1,200,000 and it was observed relevant differences between the different identified peptides. By comparison of area under the curve (AUC), it was possible to detect the most prone-interacting peptide with aPL. Thus, the peptide IIa-8.0-biot-2x obtained the higher AUC (FIG. 2B, bottom panel). […]

[2] = test system: binding of aPL to IIa-8.0-biot-2x; experiment: Inhibition experiments: remaining reactivity of pre-treated aPL on IIa-8.0-biot-2x ELISA; parameters: species or system Human; settings: aPL preincubated 90 min at RT with beads 15, 30 and 60 pmol
Experimental: To examine the functional ability of IIa-5.0, IIa-7.1, IIa-8.0 peptides and R39-R43 to inhibit the activity of pool of aPL isolated from APS patients, the remaining reactivity of aPL was evaluated for IIa-8.0-biot-2x which had previously been treated with increasing concentration of peptides. […] The flag-type orientation prevents potential interactions with the plate or with itself, particularly in solution. Streptavidin magnetic beads associated with IIa-5.0-biot-2x, IIa-7.1-biot-2x and Ha-8.0-biot-2x peptides have been generated. aPL was treated with increasing concentrations of beads before to measure the remaining binding activity of aPL on IIa-8.0-biot-2x ELISA (FIG. 7C).
To assess the ability of IIa-5.0-2x, IIa-7.1-2x and IIa-8.0-2x to inhibit in vitro the binding of aPL to IIa-8.0-biot-2x. aPL pool sera were preincubated for 90 min at RT with increasing concentrations (1, 10 and 10011 g/ml) of monomeric, dimeric IIa-5.0, IIa-7.1 and IIa-8.0 peptides and of IIa-5.0-biot-2x, IIa-7.1-biot-2x and IIa-8.0-biot-2x-associated beads (15, 30 and 60 pmol). 120 pmol correspond to the amount of IIa-8.0-biot-2x coated in well of Streptavidin Coated High Capacity Plates 96 well plates (Thermofisher). After the pre-incubation time, the serum was added anti-b2GP1 IgG (anti-IIa-8.0-2x) ELISA according to the protocol.

Substance: IIa-8.0-biot-2x: dimeric biotinylated IIa-8.0 peptide; also used associated with streptavidin magnetic beads (RSRGGMRKRKKPLTGRSRGGMRKRKKPLTG; also: dimeric peptide (two IIa-8.0 copies), biotinylated, site not given here)
- SPR AUC relative to the initial target R39-43 [1]: > 10 ×
- avidity of aPL relative to avidity for Ib-1.0-biot-2x ([1]; all dilutions (FIG. 2C upper panel)): 1.3 ×
- SPR AUC relative to Ib-1.0-biot-2x ([1]; dilution 1/100 (FIG. 2C bottom panel)): 2.3 ×
- SPR AUC relative to Ib-1.0-biot-2x ([1]; dilution 1/1,000 (FIG. 2C bottom panel)): 3.43 ×
- SPR AUC relative to Ib-1.0-biot-2x ([1]; dilution 1/10,000 (FIG. 2C bottom panel)): 10.5 ×
- sustained interaction / stability of binding with aPL (shape of SPR curves) ([1]; stabilization curves): sustained stability of binding is also significantly increased
- inhibition of aPL binding to IIa-8.0-biot-2x ELISA by peptide associated with streptavidin magnetic beads [2]: dose dependently inhibited

From patent publication US20240116994A1, “Peptides And Use Thereof For Diagnosing And Treating Antiphospholipid Syndrome” (UNIVERSITE DE GENEVE, priority 2021, published 2024)
